The test system of data set [1] is Staphylococcus aureus NCTC 13373 (mecA-positive; methicillin-resistant). As to the kind of experiment: In vitro antibacterial activity, MIC (UCL School of Pharmacy assay), MRSA. It is filed as cell-based. As to conditions: for MIC: Staphylococcus aureus. The gist of the method:
(§1)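 Strains: MRSA NCTC 13373, MSSA ATCC 25923, vanA E. faecalis ATCC 51299. Overnight agar growth suspended in PBS, A600 0.1, diluted 1:100 into isosensitest broth; 2-fold compound dilutions 32–0.03 μg/mL, ≤2% DMSO. Vancomycin QC.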

For data set [2], the system named is S. aureus ATCC 25923 (methicillin-susceptible). As to the kind of experiment: In vitro antibacterial activity, MIC (UCL), MSSA. The format is cell-based, Staphylococcus aureus. As to conditions: Staphylococcus aureus. Summed up: as §1
The test system of data set [3] is Enterococcus faecalis ATCC 51299 (vanA-positive; vancomycin-resistant). The experiment in a line: In vitro antibacterial activity, MIC (UCL), VRE. It is filed as cell-based. Summed up: as §1
A further data set relates to VSE. As to the kind of experiment: In vitro antibacterial activity, MIC, VSE. It is filed as cell-based.
Another data set is described as follows: Aqueous solubility. The settings on record: for solubility: thermodynamic from solid. It is filed as physicochemical.
A short description of data set [4]: Human plasma protein binding (PPB). The format is in vitro ADME. As to conditions: human, plasma.
A short description of data set [5]: Human liver microsome intrinsic clearance. The settings on record: human liver microsomes, NEU. It is filed as in vitro ADME. (In general: Liver microsomes are vesicles of endoplasmic reticulum, rich in cytochrome P450 enzymes.)
Data set [6] in a line: Rat hepatocyte intrinsic clearance. It is filed as in vitro ADME. As to conditions: rat hepatocytes, NEU; read-out: Rat Hep CLint (NEU).
The nature of data set [7]: Kinetic solubility estimation using nephelometry (Monash). The format is physicochemical. As to conditions: for solubility kinetic at 30 min: kinetic from dmso stock. The gist of the method:
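Compound in DMSO was spiked into pH 6.5 phosphate buffer or 0.01 M HCl (approx pH 2.0), 1% final DMSO. After 30 minutes, nephelometry gave a solubility range.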

A short description of data set [8]: In vitro metabolic stability, human liver microsomes (Monash). It is filed as in vitro ADME. Summed up: (§2)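 Compound at 1 μM with human or rat liver microsomes (0.4 mg/mL protein) at 37 °C, reaction started with NADPH-regenerating system and sampled over 60 min. No-NADPH controls included. CLint derived from substrate depletion, without correction for microsomal or blood binding.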

The nature of data set [9]: In vitro metabolic stability, rat liver microsomes (Monash). The format is in vitro ADME. Summed up:
as §2

Where [10] appears, read: human plasma, NEU, read-out: Human PPB (NEU) (converted).
Setting [11] is: 0.01 M HCl, simulated gastric fluid, pH 2.0, read-out: Sol (pH 2.0) (Monash).
[12] abbreviates: pH 6.5 phosphate buffer, pH 6.5, aqueous buffer, read-out: Sol (pH 6.5) (Monash).
Where [13] appears, read: NADPH, read-out: CLint, in vitro.

≈ marks a conversion by molar mass, not a printed value. Read-outs that look alike come from different tables or passages of the source.

For the compound `c1ccc(-c2nc3n(c2-c2ccc4sccc4c2)CCC3)nc1` [OSA_000822], the MIC is 4 µg/mL (≈ 12.6 µM) in [1] (UCL, read-out: MRSA MIC (UCL)); 4 µg/mL (≈ 12.6 µM) in data set [2] (read-out: MSSA MIC (UCL)); 8 µg/mL (≈ 25.2 µM) in data set [3] (read-out: VRE MIC (UCL)); 4 µg/mL (≈ 12.6 µM) in the data set on VSE (read-out: VSE MIC (UCL)). Moreover, the “Aqueous Solubility (NEU)” value in “Aqueous solubility” (NEU) stood at 3 µM. In [4] (setting [10]), the fraction unbound was 0.023. Moreover, the “HLM CLint (NEU)” value in [5] was 61.5 uL/min/mg protein. Further, in data set [6], the hepatocyte CLint was > 300 µL/min/1e6 cells. In addition, the solubility kinetic at 30 min in data set [7] (setting [11]) was 50 to 100 µg/mL (≈ 158 to 315 µM); in data set [7] (setting [12]), 12.5 to 25 µg/mL (≈ 39.4 to 78.8 µM). Also, in [8] (Monash), the “HLM Clint (Monash)” value is 72 µL/min/mg. The “HLM t1/2 (Monash)” value in data set [8] (Monash) was 24 min. In addition, in data set [9] (Monash), the “RLM Clint (Monash)” value came to 503 µL/min/mg. The “RLM t1/2 (Monash)” value in [9] (Monash) is 3 min.
As for `c1ccc(-c2nc3n(c2-c2ccc4occc4c2)CCC3)nc1` [compound 821], the MIC is 4 µg/mL (≈ 13.3 µM) in data set [1] (16 h, read-out: MRSA MIC); 2 µg/mL (≈ 6.64 µM) in data set [1] (UCL, read-out: MRSA MIC (UCL)); 2 µg/mL (≈ 6.64 µM) in data set [1] (read-out: MRSA MIC); 2 µg/mL (≈ 6.64 µM) in data set [2] (read-out: MSSA MIC (UCL)); 2 µg/mL (≈ 6.64 µM) in data set [3] (read-out: VRE MIC). For the same compound, the solubility in the data set “Aqueous solubility” (NEU, read-out: Aqueous Solubility (NEU)) was determined as 117 µM (≈ 35.3 µg/mL). Besides, the fraction unbound in [4] (setting [10]) was 0.028. For the same compound, in data set [5] (read-out: HLM CLint (NEU)), the microsomal CLint was found to be 63.5 µL/min/mg. Further, in data set [6], the hepatocyte CLint turned out to be 13.6 µL/min/1e6 cells. The solubility kinetic at 30 min was > 100 µg/mL in data set [7] (setting [11]) and 25 to 50 µg/mL (≈ 83 to 166 µM) in [7] (setting [12]). The microsomal CLint at 1 µM in data set [8] (Monash, read-out: HLM Clint (Monash)) worked out at 51 µL/min/mg; in [9] (Monash, read-out: RLM Clint (Monash)) it was 72 µL/min/mg. Further, the half-life at 1 µM in data set [8] (Monash, read-out: HLM t1/2 (Monash)) is 34 min; in data set [9] (Monash, read-out: RLM t1/2 (Monash)) it was 24 min.
As to `c1ccc(-c2nc3n(c2-c2ccc4sccc4c2)CCC3)nc1` [compound 822], in [1], the “MRSA MIC” value was found to be 4 µg/mL. Besides, the “activity against MRSA, in words” value in [1] was “MRSA-active”. For the same compound, the MIC in [1] (16 h, read-out: MRSA MIC) turned out to be 2 µg/mL (≈ 6.3 µM); in data set [1] (read-out: MRSA MIC), 2 µg/mL (≈ 6.3 µM); in [2] (read-out: MSSA MIC), 4 µg/mL (≈ 12.6 µM); in [3] (read-out: VRE MIC), 8 µg/mL (≈ 25.2 µM); with VSE (read-out: VSE MIC), 4 µg/mL (≈ 12.6 µM). In addition, the solubility in the data set “Aqueous solubility” (read-out: Aqueous Solubility) amounted to 3 µM (≈ 0.952 µg/mL). Moreover, in [4] (read-out: Human PPB (converted)), the fraction unbound was 0.023. Besides, the “Sol 2.0” value in data set [7] (0.01 M HCl, approx pH 2.0) was 50 to 100 µg/mL. In addition, the “Sol 6.5” value in data set [7] (pH 6.5 phosphate buffer) was 12.5 to 25 µg/mL. For the same compound, the microsomal CLint at 1 µM in [8] (setting [13]) amounted to 72 µL/min/mg; in data set [9] (setting [13]), 503 µL/min/mg. Further, the half-life at 1 µM came to 24 min in data set [8] (NADPH, read-out: T1/2) and 3 min in data set [9] (NADPH, read-out: T1/2).

For orientation: MIC means the least concentration at which growth counts as inhibited. What is called solubility is the concentration that dissolves in the medium under given conditions.

The record behind these values is PMC10714399, “Open Source Antibiotics: Simple Diarylimidazoles Are Potent against Methicillin-Resistant Staphylococcus aureus” (ACS Infectious Diseases, 2023).
